Columns and labels:
Format in all cases: in vivo
[1] = test system: Two-Spotted Spider Mite (Tetranychus urticae); assay: Two-spotted spider mite (Tetranychus urticae) spray test on kidney bean; conditions: after 7 days; for pest or weed control at 20 ppm: Tetranychus urticae, 168 h, read-out: acaricidal activity
Outline: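 Kidney bean plants at the two-leaf stage carried 50-100 adult mites and were sprayed one day later with compound in DMF/polyoxyethylene alkyl phenyl ether diluted in water. Ammonium salt and penetration enhancer at 1000 ppm were added if needed. Acaricidal activity (% mites killed) was scored after 7 days in a greenhouse.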

[2] = test system: Cucurbit Leaf Beetle (Aulacophora femoralis); assay: Cucurbit leaf beetle (Aulacophora femoralis) cucumber leaf dip test; conditions: after 7 days; for pest or weed control at 20 ppm: Aulacophora, foliar, 168 h, read-out: insecticidal activity
Outline: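 Cucumber leaves dipped in compound formulated with DMF and polyoxyethylene alkyl phenyl ether, diluted in water, with ammonium salt or ammonium salt plus penetration enhancer at 1000 ppm added if necessary; dried leaves placed on sterilized soil with five second-instar larvae. Kept at 25° C; larval mortality counted after 7 days.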

[3] = test system: Larvae of Spodoptera litura; assay: Larvae of Spodoptera litura, method using artificial feeds; conditions: artificial feed, after 7 days; for pest or weed control at 20 ppm: Spodoptera litura, 168 h, read-out: insecticidal activity (pesticidal ratio)
Outline: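 Compound formulated in dimethylformamide with polyoxyethylene alkyl phenyl ether emulsifier, water-diluted and poured onto artificial diet. Five 3rd-instar Spodoptera litura larvae per cup, held at 25° C and 50-60% humidity. Mortality after 7 days expressed as pesticidal ratio.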

[4] = active compound concentration 20 ppm
[5] = active compound concentration 4 ppm

In the case of Cc1cc(N2CCC(c3cc(Cl)c(Cl)c(Cl)c3)(C(F)(F)F)C2O)ccc1CNC(=O)C1CC1 (mixture of isomers) [A1-132], the acaricidal activity [1, 4] is reported as 100%, the insecticidal activity [2, 4] is reported as 100% and the “insecticidal activity (pesticidal ratio)” value [3, 4] is reported as 100%.

In the case of CS(=O)(=O)CC(=O)NCc1ccc(N2CCC(c3cc(Cl)c(Cl)c(Cl)c3)(C(F)(F)F)C2O)cc1C(F)(F)F (mixture of isomers) [A1-55], the acaricidal activity [1, 4] is reported as 100%, the insecticidal activity [2, 4] is reported as 100% and the “insecticidal activity (pesticidal ratio)” value [3, 4] is reported as 100%.

In the case of O=C(NCc1ccc(N2CCC(c3cc(Cl)c(F)c(Cl)c3F)(C(F)(F)F)C2O)cc1C(F)(F)F)C1CC1 (stereo not drawn) [A1-286], the acaricidal activity [1, 4] is reported as 100%, the insecticidal activity [2, 4] is reported as 100% and the “insecticidal activity (pesticidal ratio)” value [3, 4] is reported as 100%.

With CCC(=O)NCc1ccc(N2CCC(c3cc(Cl)c(F)c(Cl)c3F)(C(F)(F)F)C2O)nc1C(F)(F)F (mixture of isomers) [A3-211] the acaricidal activity [1, 5] was 100%, the acaricidal activity [1, 4] was 100% and the insecticidal activity [2, 5] was 100%. For the same compound, the insecticidal activity [2, 4] was 100%, the “insecticidal activity (pesticidal ratio)” value [3, 5] was 100% and the “insecticidal activity (pesticidal ratio)” value [3, 4] was 100%.

With C[S+]([O-])CC(=O)NCc1ccc(N2CCC(c3cc(C(F)(F)F)cc(C(F)(F)F)c3)(C(F)(F)F)C2O)nc1Br (mixture of isomers) [A3-164] the acaricidal activity [1, 4] was 98%, the insecticidal activity [2, 5] was 100% and the insecticidal activity [2, 4] was 100%. The “insecticidal activity (pesticidal ratio)” value [3, 5] was 100% and the “insecticidal activity (pesticidal ratio)” value [3, 4] was 100%.

In the case of CCC(=O)NCc1ccc(N2CCC(c3cc(C(F)(F)F)cc(C(F)(F)F)c3)(C(F)(F)F)C2O)cc1C (mixture of isomers) [A1-184], the acaricidal activity [1, 4] is reported as 100%, the insecticidal activity [2, 4] is reported as 100% and the “insecticidal activity (pesticidal ratio)” value [3, 4] is reported as 100%.

O=C(CC(F)(F)F)NCc1ccc(N2CCC(c3cc(Cl)c(Cl)c(Cl)c3)(C(F)(F)F)C2O)nc1Br (stereo not drawn) [A3-117] was tested, and the acaricidal activity [1, 4] was 100%, the insecticidal activity [2, 4] was 100% and the “insecticidal activity (pesticidal ratio)” value [3, 4] was 100%.

O=C(NCc1ccc(N2CCC(c3cc(Cl)cc(C(F)(F)F)c3)(C(F)(F)F)C2O)nc1C(F)(F)F)C1CC1 (mixture of isomers) [A3-269] was tested, and the acaricidal activity [1, 4] was 100%, the insecticidal activity [2, 4] was 100% and the “insecticidal activity (pesticidal ratio)” value [3, 4] was 100%.

Work on O=C(NCc1cnc(N2CCC(c3cc(Cl)c(Cl)c(Cl)c3)(C(F)(F)F)C2O)nc1C(F)(F)F)C1CC1 (stereo not drawn) [A4-16, N-({2-[2-hydroxy-3-(3,4,5-trichlorophenyl)-3-(trifluoromethyl)-pyrrolidin-1-yl]-4-(trifluoromethyl)pyrimidin-5-yl}methyl)cyclopropanecarboxamide] yielded a pest or weed control at 20 ppm [1, 4] of 100%, a pest or weed control at 20 ppm [2, 4] of 100% and a pest or weed control at 20 ppm [3, 4] of 100%.

In the case of O=C(NCc1ccc(N2CCC(c3cccc(C(F)(F)F)c3)(C(F)(F)F)C2O)nc1C(F)(F)F)C1CC1 (racemic) [A3-225], the acaricidal activity [1, 4] is reported as 100%, the insecticidal activity [2, 4] is reported as 100% and the “insecticidal activity (pesticidal ratio)” value [3, 4] is reported as 100%.

With COCCC(=O)NCc1cnc(N2CCC(c3cc(C(F)(F)F)cc(C(F)(F)F)c3)(C(F)(F)F)C2O)nc1C(F)(F)F (stereo not drawn) [A4-30] the acaricidal activity [1, 4] was 100%, the insecticidal activity [2, 4] was 100% and the “insecticidal activity (pesticidal ratio)” value [3, 4] was 100%.

CCC(=O)NCc1ccc(N2CCC(c3cc(Cl)cc(Cl)c3F)(C(F)(F)F)C2O)nc1C(F)(F)F (stereo not drawn) [A3-345] was tested, and the acaricidal activity [1, 4] was 100%, the insecticidal activity [2, 5] was 100% and the “insecticidal activity (pesticidal ratio)” value [3, 5] was 100%.

With O=C(NCc1ccc(N2CCC(c3cc(Cl)cc(Cl)c3)(C(F)(F)F)C2O)cc1Cl)C1CC1 (stereo not drawn) [A1-5] the acaricidal activity [1, 4] was 100%, the insecticidal activity [2, 4] was 100% and the “insecticidal activity (pesticidal ratio)” value [3, 4] was 100%.

In the case of O=C(NCc1ccc(N2CCC(c3cc(C(F)(F)F)cc(C(F)(F)F)c3)(C(F)(F)F)C2O)nc1Br)C1CC1 (stereo not drawn) [A3-159], the acaricidal activity [1, 4] is reported as 100%, the insecticidal activity [2, 4] is reported as 100% and the “insecticidal activity (pesticidal ratio)” value [3, 4] is reported as 100%.

For CCC(=O)NCc1ccc(N2CCC(c3cc(Cl)c(F)c(Cl)c3F)(C(F)(F)F)C2O)cc1Br (stereo not drawn) [A1-430], the acaricidal activity [1, 4] was 100%, the insecticidal activity [2, 5] was 100% and the “insecticidal activity (pesticidal ratio)” value [3, 5] was 100%.

CC(=O)NCc1ccc(N2CCC(c3cc(Cl)c(Cl)c(Cl)c3)(C(F)(F)F)C2O)cc1Br (mixture of isomers) [A1-161] was tested, and the acaricidal activity [1, 4] was 100%, the insecticidal activity [2, 4] was 100% and the “insecticidal activity (pesticidal ratio)” value [3, 4] was 100%.

For CS(=O)(=O)CC(=O)NCc1ccc(N2CCC(c3cc(C(F)(F)F)cc(C(F)(F)F)c3)(C(F)(F)F)C2O)nc1C(F)(F)F (stereo not drawn) [A3-33], the acaricidal activity [1, 4] was 100%, the insecticidal activity [2, 4] was 100% and the “insecticidal activity (pesticidal ratio)” value [3, 4] was 100%.

O=C(NCc1ccc(N2CCC(c3ccc(F)c(C(F)(F)F)c3)(C(F)(F)F)C2O)cc1C(F)(F)F)C1CC1 (racemic) [A1-308] was tested, and the acaricidal activity [1, 4] was 100%, the insecticidal activity [2, 4] was 100% and the “insecticidal activity (pesticidal ratio)” value [3, 4] was 100%.

With CCC(=O)NCc1ccc(N2CCC(c3cc(Cl)cc(C(F)(F)F)c3)(C(F)(F)F)C2O)nc1C(F)(F)F (mixture of isomers) [A3-266] the acaricidal activity [1, 4] was 100%, the insecticidal activity [2, 4] was 100% and the “insecticidal activity (pesticidal ratio)” value [3, 4] was 100%.

In the case of CCC(=O)NCc1cnc(N2CCC(c3cc(Cl)c(Cl)c(Cl)c3)(C(F)(F)F)C2O)nc1C(F)F (stereo not drawn) [A4-216], the acaricidal activity [1, 5] is reported as 100%, the insecticidal activity [2, 4] is reported as 100% and the “insecticidal activity (pesticidal ratio)” value [3, 5] is reported as 100%.

In the case of CCC(=O)NCc1ccc(N2CCC(c3cc(Cl)c(F)c(Cl)c3F)(C(F)(F)F)C2O)cc1C(F)(F)F (stereo not drawn) [A1-283, N-{4-[3-(3,5-dichloro-2,4-difluorophenyl)-2-hydroxy-3-(trifluoromethyl)pyrrolidin-1-yl]-2-(trifluoromethyl)benzyl}propanamide], the pest or weed control at 20 ppm [1, 4] is reported as 100%, the pest or weed control at 20 ppm [2, 4] is reported as 100% and the pest or weed control at 20 ppm [3, 4] is reported as 100%.

For O=C(CC(F)(F)F)NCc1cnc(N2CCC(c3cc(C(F)(F)F)cc(C(F)(F)F)c3)(C(F)(F)F)C2O)nc1C(F)(F)F (stereo not drawn) [A4-29], the acaricidal activity [1, 4] was 100%, the insecticidal activity [2, 4] was 100% and the “insecticidal activity (pesticidal ratio)” value [3, 4] was 100%.

In the case of CCC(=O)NCc1ccc(N2CCC(c3cc(Cl)c(Cl)c(Cl)c3)(C(F)(F)F)C2O)cc1C(F)(F)F (stereo not drawn) [A1-46], the acaricidal activity [1, 4] is reported as 100%, the insecticidal activity [2, 4] is reported as 100% and the “insecticidal activity (pesticidal ratio)” value [3, 4] is reported as 100%.

For O=C(NCc1ccc(N2CCC(c3cc(Cl)c(Cl)c(Cl)c3)(C(F)(F)F)C2O)cc1F)C1CC1 (mixture of isomers) [A1-154], the acaricidal activity [1, 4] was 100%, the insecticidal activity [2, 4] was 100% and the “insecticidal activity (pesticidal ratio)” value [3, 4] was 100%.

For COCCC(=O)NCc1ccc(N2CCC(c3cc(Cl)c(Cl)c(Cl)c3)(C(F)(F)F)C2O)nc1C(F)(F)F (stereo not drawn) [A3-19], the acaricidal activity [1, 5] was 100%, the acaricidal activity [1, 4] was 100% and the insecticidal activity [2, 5] was 100%. For the same compound, the insecticidal activity [2, 4] was 100%, the “insecticidal activity (pesticidal ratio)” value [3, 5] was 100% and the “insecticidal activity (pesticidal ratio)” value [3, 4] was 100%.

With CCC(=O)NCc1ccc(N2CCC(c3cc(C(F)(F)F)cc(C(F)(F)F)c3)(C(F)(F)F)C2O)nc1C(F)(F)F (stereo not drawn) [A3-24] the acaricidal activity [1, 4] was 100%, the insecticidal activity [2, 4] was 100% and the “insecticidal activity (pesticidal ratio)” value [3, 4] was 100%.

For O=C(NCc1cnc(N2CCC(c3cc(C(F)(F)F)cc(C(F)(F)F)c3)(C(F)(F)F)C2O)nc1C(F)(F)F)C1CC1 (stereo not drawn) [A4-27], the acaricidal activity [1, 4] was 100%, the insecticidal activity [2, 4] was 100% and the “insecticidal activity (pesticidal ratio)” value [3, 4] was 100%.

CS(=O)(=O)CC(=O)NCc1cnc(N2CCC(c3cc(C(F)(F)F)cc(C(F)(F)F)c3)(C(F)(F)F)C2O)nc1C(F)(F)F (stereo not drawn) [A4-33] was tested, and the acaricidal activity [1, 4] was 100%, the insecticidal activity [2, 4] was 100% and the “insecticidal activity (pesticidal ratio)” value [3, 4] was 100%.

In the case of CCC(=O)NCc1ccc(N2CCC(c3cc(Cl)cc(C(F)(F)F)c3)(C(F)(F)F)C2O)cc1C(F)(F)F (stereo not drawn) [A1-338], the acaricidal activity [1, 4] is reported as 100%, the insecticidal activity [2, 4] is reported as 100% and the “insecticidal activity (pesticidal ratio)” value [3, 4] is reported as 100%.

For O=C(NCc1ccc(N2CCC(c3cc(F)c(F)c(F)c3)(C(F)(F)F)C2O)cc1C(F)(F)F)C1CC1 (stereo not drawn) [A1-264], the acaricidal activity [1, 4] was 100%, the insecticidal activity [2, 5] was 100% and the insecticidal activity [2, 4] was 100%. The “insecticidal activity (pesticidal ratio)” value [3, 5] was 80%.

With CCC(=O)NCc1ccc(N2CCC(c3cccc(C(F)(F)F)c3)(C(F)(F)F)C2O)cc1C(F)(F)F (racemic) [A1-294] the acaricidal activity [1, 4] was 100%, the insecticidal activity [2, 4] was 100% and the “insecticidal activity (pesticidal ratio)” value [3, 4] was 100%.

With CSCC(=O)NCc1cnc(N2CCC(c3cc(Cl)c(Cl)c(Cl)c3)(C(F)(F)F)C2O)nc1C(F)(F)F (stereo not drawn) [A4-20] the acaricidal activity [1, 4] was 100%, the insecticidal activity [2, 4] was 100% and the “insecticidal activity (pesticidal ratio)” value [3, 4] was 100%.

CCC(=O)NCc1ccc(N2CCC(c3cc(Cl)c(Cl)c(Cl)c3)(C(F)(F)F)C2O)cc1Cl (stereo not drawn) [A1-13] was tested, and the acaricidal activity [1, 4] was 100%, the insecticidal activity [2, 4] was 100% and the “insecticidal activity (pesticidal ratio)” value [3, 4] was 100%.

In the case of O=C(CC(F)(F)F)NCc1ccc(N2CCC(c3cc(Cl)cc(Cl)c3)(C(F)(F)F)C2O)cc1C(F)(F)F (stereo not drawn) [A1-40], the acaricidal activity [1, 4] is reported as 100%, the insecticidal activity [2, 4] is reported as 100% and the “insecticidal activity (pesticidal ratio)” value [3, 4] is reported as 100%.

In the case of CSCC(=O)NCc1ccc(N2CCC(c3cc(C(F)(F)F)cc(C(F)(F)F)c3)(C(F)(F)F)C2O)cc1Cl (stereo not drawn) [A1-31], the acaricidal activity [1, 4] is reported as 100%, the insecticidal activity [2, 4] is reported as 100% and the “insecticidal activity (pesticidal ratio)” value [3, 4] is reported as 100%.

With O=C(CC(F)(F)F)NCc1ccc(N2CCC(c3cc(Cl)cc(Cl)c3)(C(F)(F)F)C2O)nc1C(F)(F)F (stereo not drawn) [A3-7] the acaricidal activity [1, 4] was 100%, the insecticidal activity [2, 4] was 100% and the “insecticidal activity (pesticidal ratio)” value [3, 4] was 100%.
